Laboratory results published in patent publication US20210283110A1, “COMPOUND FOR USE IN THE TREATMENT OF A DISEASE CHARACTERIZED BY DYSREGULATED MUCUS PRODUCTION AND/OR SECRETION” (UNIVERSITÄT REGENSBURG, priority 2018, published 2021).
Entries after “also recorded” stand apart in the source; their conditions may differ.

Key:
[1] = tested on: Calu3 airway epithelial cells; assay: LPS-induced IL-8 release by Calu3 cells (ELISA); assay type: cell-based, human; conditions: Calu3 cells exposed to LPS for 48 hrs
Experimental: (§1) Mouse models were performed according to the previous example. For investigating mucus, IL-8 release, and leukocytes, tissues were fixed using 4% paraformaldehyde (PFA), 0.2% picric acid and 3.4% sucrose in PBS and washed in methanol before embedding in paraffin. Mucus was analyzed using standard Periodic acid-Schiff (PAS) or alcian blue staining. MUC5AC was stained using anti-MUC5AC mouse antibody (1:200, Abcam, ab3649) and a secondary antibody conjugated with Alexa488 (Life Technologies, A-21206). Nuclei were stained with Hoe33342 (0.1 μg/ml PBS, Aplichem, Darmstadt, Germany). Quantikine ELISA kits (R&D systems) were used to measure secretion of the cytokine IL-8 by Calu3 cells.
(§2) Calu3 airway epithelial cells were exposed to LPS for 48 hrs and the release of the neutrophil attractor interleukin 8 (IL-8) was measured. […] Upon stimulation with the Th2 cytokine IL-13, Calu3 cells produced MUC5AC. […] Taken together, airway epithelial knockout of TMEM16A caused a defect in mucus secretion, while mucus production was retained (FIG. 16C).

[2] = tested on: freshly isolated crypt cells; assay: ATP-induced Ca2+ rise in freshly isolated crypt cells (Fura-2); assay type: cell-based, mouse; conditions: low concentrations of niclosamide
Experimental: All methods were carried out as specified in the previous examples. For the measurements of Ca^2+, crypts were isolated from inverted proximal mouse colons using Ca^2+-free Ringer solution with 1 mM DTT and 1 μM indomethacin for 20 min at 37° C. Crypts were loaded with 10 μM Fura2-AM (Biotum, USA) and 1 mg/ml BSA (Sigma-Aldrich) in ringer solution for 1 h at RT. Intracellular Ca^2+ was measured by loading crypts with […] Fura-2/AM and 0.02% Pluronic F-127 (Life Technologies, Germany) in ringer solution for 1 h at room temperature. Fluorescence was detected in cells perfused with Ringer's solution at 37° C. using an inverted microscope (Axiovert S100, Zeiss, Germany) and a high-speed polychromator system (VisiChrome, Germany). Fura-2 was excited at 340/380 nm, and emission was recorded between 470 and 550 nm using a CoolSnap camera (CoolSnap HQ, Visitron).
(§3) It was examined whether niclosamide inhibits intestinal mucus secretion. To this end, niclosamide was added to the perfusate. […] The present inventors detected reduced Ca^2+ increase upon ATP-stimulation of freshly isolated crypt cells from Vil1-Cre TMEM16F^flox/flox mice. […] Increase in FM4-64 fluorescence in the plasma membrane is a marker for membrane exocytosis. The present inventors detected that ATP-stimulation (but not cholinergic stimulation) of HEK293 cells expressing TMEM16F induced FM4-64 fluorescence, i.e. exocytosis.

[3] = tested on: airways of OVA-sensitized mice; assay: OVA-induced allergic airway inflammation in mice (alcian blue mucus staining, airway cross section, CD45 infiltration); assay type: in vivo, mouse
Experimental: Intestinal sections were collected for histological analyses. Mouse airways were fixed by transcardial fixation and were embedded in paraffin or were used as cryosections. For paraffin sections, tissues were fixed in 4% paraformaldehyde (PFA), 0.2% picric acid and 3.4% sucrose in PBS, and were washed in methanol before embedding in paraffin. Sections were stained according to standard Periodic acid-Schiff (PAS) or Alcian Blue methods and assessed by light microscopy.
as §1
All methods were performed as described in the previous examples. Mice were treated with ovalbumin (OVA) to induce an allergic reaction which leads to airway inflammation. […] After allergization with OVA and development of airway inflammation, excessive mucus production and inflammatory infiltration with immune cells is observed. Activation of cholinergic receptors using the muscarinic agonist carbachol (CCH) results in constriction of the airways and secretion of mucus (FIG. 5A-C). 3-day treatment using niclosamide reduced the CCH-induced constriction of the airways (FIG. 1). Furthermore, mucus secretion and inflammatory infiltrates were reduced.
OVA-induced allergic airway inflammation in mice caused pronounced airway goblet cell metaplasia. […] NFA is a well know inhibitor of Ca^2+ activated Cl^− channels and inhibits TMEM16A. The two main TMEM16 paralogs expressed in airway epithelial and smooth muscle cells, TMEM16A and TMEM16F, were expressed in HEK293 cells and the whole cell currents upon activation by the Ca^2+ ionophore ionomycin (Iono) were measured. […] Novel therapeutic strategies for the treatment of inflammatory airway diseases such as CF may therefore consider the use of inhibitors of TMEM16.
The present inventors disclose that airway epithelial knockout of TMEM16A causes a defect in basal, i.e. ATP-mediated mucus secretion. […] Mucus synthesis under inflammatory (OVA) conditions and mucus release upon cholinergic stimulation, however, were not compromised (FIG. 16C). […] Because basal mucus production still occurs in the absence of TMEM16A, other TMEM16 paralogs may also be in charge of mucus synthesis.

[4] = tested on: mice homozygous for the cystic fibrosis mutation CFTR^deltaF508/deltaF508; assay type: in vivo; conditions: 13 mg/kg/day intraperitoneally for 7 days, in corn oil; vs sham
Experimental: Animals were treated for 7 days and subsequently sacrificed. Jejunum was excised, fixed in Carnoy Solution and embedded in paraffin.

[5] = tested on: Calu3 human airway epithelial cells; assay: IL-13 induced MUC5AC expression in Calu3 cells; assay type: cell-based; conditions: IL-13 stimulation
Experimental: as §1, §2

excised wt colon = assay: Acute mucus secretion in in vitro perfused excised colon, niclosamide in perfusate; design: species or system mouse; conditions: niclosamide 10 μM in perfusate
Description: Cholinergic stimulation released mucus from freshly isolated TMEM16A+/+ and TMEM16A−/− intestine (FIG. 6D-F). Mucus release was examined in more detail by perfusing freshly excised colon and collecting released mucus in vitro. For in vitro perfusion of intestines, mice were sacrificed and excised intestines were placed immediately in ice-cold Ringer solution and carefully flushed to remove residual luminal contents. The intestinal segments were mounted and perfused vertically in a custom-designed perfusion chamber with a constant temperature.
It was examined whether TMEM16F is also important for intestinal mucus secretion and acute mucus release was measured in freshly excised colonic segments mounted in a vertical custom-designed perfusion chamber at 37° C. and 24 mmol/1 HCO3^−/5% CO2. Secretion of mucus was induced by basolateral perfusion with methacholine (MCh) and by luminal perfusion of ATP. […]
as §3, with “secretion.” for “secretion. To this end, niclosamide was added to the perfusate.”

**Q.** With `O=C(Nc1ccc([N+](=O)[O-])cc1Cl)c1cc(Cl)ccc1O` [niclosamide, 5-chloro-N-(2-chloro-4-nitrophenyl)-2-hydroxybenzamide] as the compound, how does the IL-8 release [1] read?
**A.** Its IL-8 release is “clearly inhibited”.

**Q.** And the “ATP-induced Ca2+ rise” value [2]?
**A.** The value was “potently inhibited”.

**Q.** And the inflammatory infiltrates ([3]; OVA-allergized mice, 3-day treatment)?
**A.** The inflammatory infiltrates was “reduced”.

**Q.** And the mucus secretion ([3]; OVA-allergized mice, 3-day treatment, CCH)?
**A.** Its mucus secretion is “reduced”.

**Q.** What about the “CCH-induced constriction of the airways” value ([3]; OVA-allergized mice, 3-day treatment, carbachol (CCH)) of the same compound?
**A.** Its value is “reduces”.

**Q.** And the CCH-induced airway contraction ([3]; OVA-sensitized TMEM16A+/+ and TMEM16A−/− mice, intratracheal for three days before CCH)?
**A.** Its CCH-induced airway contraction is “strongly attenuated”.

**Q.** And the “mucus synthesis / production” value ([3]; OVA-sensitized wt (TMEM16A+/+) and TMEM16A−/− mice, intratracheal for three days before CCH)?
**A.** The value was “strongly reduced; also recorded: strongly attenuated”.

**Q.** What about the OVA-induced mucus production ([3]; wt mice, tracheal instillation, niflumic acid 20 μM or niclosamide 5 μM) of the same compound?
**A.** Its OVA-induced mucus production is “strongly reduced; also recorded: inhibited mucus production”.

**Q.** What about the jejunal diameters [4] of the same compound?
**A.** The jejunal diameters was “smaller”.

**Q.** What about the “mucus in jejunum (alcian blue)” value [4] of the same compound?
**A.** Its value is “largely reduced”.

**Q.** What about the Muc5AC-expression [5] of the same compound?
**A.** Its Muc5AC-expression is “largely reduced”.

**Q.** What about the “mucus secretion activated by basolateral MCh” value (excised wt colon) of the same compound?
**A.** The value was “not”.

**Q.** What about the “mucus secretion activated by luminal ATP” value (excised wt colon) of the same compound?
**A.** Its value is “clearly inhibited”.
